The numbers were not newly measured in US7625898B2, “Posaconazole polymer conjugates and methods of treatment using posaconazole and polymer conjugates thereof” (Enzon Pharmaceuticals, Inc., priority 2007, dated 2009), which cites them from elsewhere.

The conditions of this data set: background statement on unmodified posaconazole.

`CC[C@@H]([C@H](C)O)n1ncn(-c2ccc(N3CCN(c4ccc(OC[C@@H]5CO[C@@](Cn6cncn6)(c6ccc(F)cc6F)C5)cc4)CC3)cc2)c1=O` [Posaconazole, posaconazole]: the water solubility is less than 2 µg/mL.
